The test system of data set [1] is L1210. The data set can be described thus: Antitumor activity against mouse L1210 cells […] in ip dosed C3H X DBA2 F1 hybrid mouse on day 0 and dosed at LD10 level once daily on days 1 to 5 assessed as increase in life span relative to control. It is filed as functional.
The subject of the next data set is Mus musculus. In words: Toxicity in ip dosed C3H X DBA2 F1 hybrid mouse […] with mouse L1210 cells on day 0 and dosed once daily on days 1 to 5 measured after 50 days. It is filed as organism-based. Conditions: in vivo, 1200 h.
Data set [2] relates to L1210. In words: Antitumor activity against mouse L1210 cells […] in ip dosed C3H X DBA2 F1 hybrid mouse on day 0 and dosed once daily on days 1 to 5 assessed as increase in life span relative to control. The format is functional.
A short description of data set [3]: Lipophilic-hydrophilic balance, Rm of the compound by partition chromatography. The format is physicochemical.

Take `CCC[n+]1ccc(Nc2ccc(NC(=O)c3ccc(C(=O)Nc4ccc(Nc5cc[n+](CCC)cc5)cc4)cc3)cc2)cc1.Cc1ccc(S(=O)(=O)[O-])cc1.Cc1ccc(S(=O)(=O)[O-])cc1`: the “log(ILSmax)” value in the data set on L1210 [1] was 1.99. In addition, the LD10 with Mus musculus is 4.1 mg/kg. In addition, the D40 in the data set with L1210 [2] amounted to 0.6 mg/kg. For the same molecule, the Rm in data set [3] amounted to 0.81.
In the case of `C[n+]1cccc(NC(=O)c2ccc(NC(=O)c3ccc(C(=O)Nc4ccc(C(=O)Nc5ccc[n+](C)c5)cc4)cc3)cc2)c1.Cc1ccc(S(=O)(=O)[O-])cc1.Cc1ccc(S(=O)(=O)[O-])cc1`, in the data set with L1210 [1], the “log(ILSmax)” value is reported as 2.13. The LD10 with Mus musculus came out at 56 mg/kg. For the same molecule, the D40 in the data set on L1210 [2] was 5.9 mg/kg. Moreover, the Rm in data set [3] is on record as -0.74.
Taken in the same sequence, the figures for `CC[n+]1cccc2cc(NC(=O)c3ccc(C(=O)Nc4ccc(NC(=O)c5ccc6c(ccc[n+]6CC)c5)cc4)cc3)ccc21.Cc1ccc(S(=O)(=O)[O-])cc1.Cc1ccc(S(=O)(=O)[O-])cc1` were 1.9, 50 mg/kg, 35 mg/kg and -0.35.
With `CC[n+]1cccc(NC(=O)c2ccc(NC(=O)c3ccc(C(=O)Nc4ccc(C(=O)Nc5ccc[n+](CC)c5)cc4OC)cc3)c(OC)c2)c1.Cc1ccc(S(=O)(=O)[O-])cc1.Cc1ccc(S(=O)(=O)[O-])cc1`, the “log(ILSmax)” value in the data set on L1210 [1] is 1.86. In the data set on Mus musculus, the LD10 was found to be 25 mg/kg. Besides, in the data set on L1210 [2], the D40 turned out to be 10.3 mg/kg. This molecule had a Rm in data set [3] of -0.15.
Regarding `CCC[n+]1cccc(NC(=O)c2ccc(NC(=O)/C=C/c3ccc(C(=O)Nc4ccc(C(=O)Nc5ccc[n+](CCC)c5)cc4)cc3)cc2)c1.Cc1ccc(S(=O)(=O)[O-])cc1.Cc1ccc(S(=O)(=O)[O-])cc1`, the “log(ILSmax)” value in the data set on L1210 [1] amounted to 1.95. Also, the LD10 with Mus musculus came to 46 mg/kg. In addition, the D40 in the data set with L1210 [2] was determined as 11.5 mg/kg. In data set [3], the Rm was -0.2.
Regarding `CC[n+]1cccc(NC(=O)c2ccc(NC(=O)c3ccc(C(=O)Nc4ccc(C(=O)Nc5ccc[n+](CC)c5)c(OC)c4)cc3)cc2OC)c1.Cc1ccc(S(=O)(=O)[O-])cc1.Cc1ccc(S(=O)(=O)[O-])cc1`, the “log(ILSmax)” value in the data set on L1210 [1] was found to be 1.76. This molecule returned an LD10 in the data set on Mus musculus of 40 mg/kg. Further, the D40 in the data set with L1210 [2] stood at 24 mg/kg. This molecule showed a Rm in data set [3] of 0.45.
Taken in the same sequence, the figures for `CC[n+]1c(C)cc(Nc2ccc(NC(=O)c3ccc(C(=O)Nc4ccc(Nc5cc(C)[n+](CC)c(N)n5)cc4)cc3)cc2)nc1N.Cc1ccc(S(=O)(=O)[O-])cc1.Cc1ccc(S(=O)(=O)[O-])cc1` were 2.09, 200 mg/kg, 69 mg/kg and -0.4.
The like results for `CC[n+]1cccc(NC(=O)c2ccc(NC(=O)c3cccc(C(=O)Nc4ccc(C(=O)Nc5ccc[n+](CC)c5)cc4)c3)cc2)c1.Cc1ccc(S(=O)(=O)[O-])cc1.Cc1ccc(S(=O)(=O)[O-])cc1` were, in that order, 1.6, 12 mg/kg, 12 mg/kg and 0.51.
Taken in the same sequence, the figures for `CCC[n+]1ccc(-c2ccc(NC(=O)c3ccc(Nc4cc[n+](CCC)c5ccccc45)cc3)cc2)cc1.[Br-].[Br-]` were 1.6, 4.8 mg/kg, 4.8 mg/kg and 0.8.
Regarding `CC[n+]1cccc(C(=O)Nc2ccc(NC(=O)c3ccc(C(=O)Nc4ccc5c(ccc[n+]5CC)c4)cc3)cc2)c1.Cc1ccc(S(=O)(=O)[O-])cc1.Cc1ccc(S(=O)(=O)[O-])cc1`, in the data set on L1210 [1], the “log(ILSmax)” value amounted to 1.89. The molecule also showed an LD10 in the data set with Mus musculus of 6 mg/kg. The D40 with L1210 [2] worked out at 3.1 mg/kg. The molecule further had a Rm in data set [3] of -0.12.
As for `CC[n+]1ccc(Nc2ccc(NC(=O)c3ccc(C(=O)Nc4ccc(Nc5cc[n+](CC)cc5)cc4)cc3)cc2)cc1.Cc1ccc(S(=O)(=O)[O-])cc1.Cc1ccc(S(=O)(=O)[O-])cc1`, the “log(ILSmax)” value with L1210 [1] stood at 2.24. This molecule also came in with an LD10 in the data set with Mus musculus of 2.5 mg/kg. Further, the D40 with L1210 [2] stood at 0.5 mg/kg. The molecule further displayed a Rm in data set [3] of 0.46.
Taken in the same sequence, the figures for `CCCC[n+]1cccc2cc(NC(=O)c3ccc(-c4ccc(-c5ccc(-c6ccc(C(=O)Nc7ccc8c(ccc[n+]8CCCC)c7)cc6)cc5)cc4)cc3)ccc21.Cc1ccc(S(=O)(=O)[O-])cc1.Cc1ccc(S(=O)(=O)[O-])cc1` were 1.73, 57 mg/kg, 15 mg/kg and 0.74.
Consider `COCC[n+]1cccc2cc(NC(=O)c3ccc(C(=O)Nc4ccc5c(ccc[n+]5CCOC)c4)cc3)ccc21.Cc1ccc(S(=O)(=O)[O-])cc1.Cc1ccc(S(=O)(=O)[O-])cc1`, for which the “log(ILSmax)” value with L1210 [1] is given as 2.04. In addition, the LD10 in the data set on Mus musculus worked out at 17 mg/kg. Further, the D40 with L1210 [2] worked out at 11 mg/kg. For the same molecule, the Rm in data set [3] is listed as 0.4.
Take `CC[n+]1ccc(Nc2ccc(NC(=O)c3ccc(C(=O)Nc4ccc(Nc5cc[n+](CC)c(N)n5)cc4)cc3)cc2)nc1N.Cc1ccc(S(=O)(=O)[O-])cc1.Cc1ccc(S(=O)(=O)[O-])cc1`: the “log(ILSmax)” value in the data set with L1210 [1] came to 2.06. Further, the LD10 in the data set with Mus musculus is 112 mg/kg. In the data set on L1210 [2], the D40 was 10 mg/kg. The molecule also registered a Rm in data set [3] of -0.3.
`CCC[n+]1cc(-c2ccc(NC(=O)c3ccc(Nc4cc[n+](CCC)c5ccccc45)cc3)cc2)c(N)nc1N.[I-].[I-]`: in the data set on L1210 [1], the “log(ILSmax)” value turned out to be 1.85. Moreover, the LD10 with Mus musculus came to 40 mg/kg. Further, in the data set on L1210 [2], the D40 was 15.8 mg/kg. This molecule also returned a Rm in data set [3] of 0.68.
Consider `CC[n+]1cccc2ccc(NC(=O)c3ccc(-c4ccc(-c5ccc(-c6ccc(C(=O)Nc7ccc8ccc[n+](CC)c8c7)cc6)cc5)cc4)cc3)cc21.Cc1ccc(S(=O)(=O)[O-])cc1.Cc1ccc(S(=O)(=O)[O-])cc1`, for which, in the data set with L1210 [1], the “log(ILSmax)” value came out at 2.02. The molecule also registered an LD10 in the data set on Mus musculus of 106 mg/kg. The D40 in the data set with L1210 [2] is 20.4 mg/kg. In data set [3], this molecule had a Rm of 0.08.
The like results for `CC[n+]1cccc(-c2ccc(NC(=O)c3ccc(C(=O)Nc4ccc(-c5ccc(-c6ccc(-c7ccc[n+](CC)c7)cc6)cc5)cc4)cc3)cc2)c1.Cc1ccc(S(=O)(=O)[O-])cc1.Cc1ccc(S(=O)(=O)[O-])cc1` were, in that order, 2.2, 43 mg/kg, 5.6 mg/kg and -0.44.
With `CCC[n+]1cc(-c2ccc(NC(=O)c3ccc(Nc4cc[n+](CCC)c5ccc(N)cc45)cc3N)cc2)c(N)nc1N.Cc1ccc(S(=O)(=O)[O-])cc1.Cc1ccc(S(=O)(=O)[O-])cc1`, the “log(ILSmax)” value with L1210 [1] turned out to be 2.03. The same molecule returned an LD10 with Mus musculus of 50 mg/kg. Moreover, the D40 with L1210 [2] was 13.7 mg/kg. Also, the Rm in data set [3] is given as 0.56.
The like results for `C[n+]1cccc2cc(NC(=O)c3ccc(-c4ccc(-c5ccc(-c6ccc(C(=O)Nc7ccc8c(ccc[n+]8C)c7)cc6)cc5)cc4)cc3)ccc21.Cc1ccc(S(=O)(=O)[O-])cc1.Cc1ccc(S(=O)(=O)[O-])cc1` were, in that order, 1.9, 65 mg/kg, 10 mg/kg and -0.52.
The like results for `CC[n+]1cccc(NC(=O)c2ccc(NC(=O)c3ccc(C(=O)Nc4ccc(C(=O)Nc5ccc[n+](CC)c5)cc4)c(Cl)c3)cc2)c1.Cc1ccc(S(=O)(=O)[O-])cc1.Cc1ccc(S(=O)(=O)[O-])cc1` were, in that order, 1.7, 29 mg/kg, 22 mg/kg and 0.42.
The like results for `Cc1cc(Nc2ccc(C(=O)Nc3ccc(Nc4cc[n+](C)cc4)cc3)c(N)c2)c2cc(N)ccc2[n+]1C.[I-].[I-]` were, in that order, 2.2, 110 mg/kg, 8.4 mg/kg and 0.16.
On to `CC[n+]1cccc2cc(NC(=O)c3ccc(C(=O)Nc4ccc5c(ccc[n+]5CC)c4)nc3)ccc21.Cc1ccc(S(=O)(=O)[O-])cc1.Cc1ccc(S(=O)(=O)[O-])cc1`, for which the “log(ILSmax)” value in the data set with L1210 [1] is reported as 1.42. In the data set with Mus musculus, this molecule came in with an LD10 of 6 mg/kg. Besides, in the data set with L1210 [2], the D40 came to 6 mg/kg. In data set [3], this molecule showed a Rm of -0.15.
As to `C[n+]1cccc(NC(=O)c2ccc(NC(=O)c3ccc(C(=O)Nc4ccc5c(ccc[n+]5C)c4)cc3)cc2)c1.Cc1ccc(S(=O)(=O)[O-])cc1.Cc1ccc(S(=O)(=O)[O-])cc1`, in the data set with L1210 [1], the “log(ILSmax)” value is given as 2.03. The same molecule gave an LD10 with Mus musculus of 27 mg/kg. In addition, the D40 in the data set with L1210 [2] is 12 mg/kg. In data set [3], this molecule displayed a Rm of -0.25.
Turning to `CC[n+]1cccc(-c2ccc(NC(=O)/C=C/c3ccc(C(=O)Nc4ccc(-c5ccc(-c6ccc(-c7ccc[n+](CC)c7)cc6)cc5)cc4)cc3)cc2)c1.Cc1ccc(S(=O)(=O)[O-])cc1.Cc1ccc(S(=O)(=O)[O-])cc1`, the “log(ILSmax)” value in the data set with L1210 [1] is 2.25. This molecule registered an LD10 in the data set on Mus musculus of 60 mg/kg. Besides, the D40 in the data set on L1210 [2] was 5.2 mg/kg. In data set [3], this molecule yielded a Rm of -0.3.
As for `CCCC[n+]1cccc(NC(=O)c2ccc(NC(=O)c3ccc(C(=O)Nc4ccc5c(ccc[n+]5CCCC)c4)cc3)cc2)c1.Cc1ccc(S(=O)(=O)[O-])cc1.Cc1ccc(S(=O)(=O)[O-])cc1`, the “log(ILSmax)” value in the data set with L1210 [1] came out at 1.6. Moreover, in the data set on Mus musculus, the LD10 was found to be 32 mg/kg. In the data set on L1210 [2], the D40 stood at 32 mg/kg. This molecule registered a Rm in data set [3] of 0.85.
Take `CCCC[n+]1cccc2cc(NC(=O)c3ccc(C(=O)Nc4ccc5c(ccc[n+]5CCCC)c4)c(N)c3)ccc21.Cc1ccc(S(=O)(=O)[O-])cc1.Cc1ccc(S(=O)(=O)[O-])cc1`: the “log(ILSmax)” value in the data set with L1210 [1] was determined as 1.72. In the data set on Mus musculus, this molecule displayed an LD10 of 18 mg/kg. Also, the D40 in the data set on L1210 [2] worked out at 9 mg/kg. In data set [3], this molecule displayed a Rm of 0.6.
